The values below come from ChEMBL document CHEMBL4321837, “Discovery of Potent and Orally Effective Dual Janus Kinase 2/FLT3 Inhibitors for the Treatment of Acute Myelogenous Leukemia and Myeloproliferative Neoplasms” (J Med Chem, 2019).

Broadly, the IC50 is the concentration that inhibits the measured activity by half.

Experiment [1] concerns the target T1, Tyrosine-protein kinase JAK3 (Homo sapiens) (UniProt P52333).
T1 sequence (whole entry): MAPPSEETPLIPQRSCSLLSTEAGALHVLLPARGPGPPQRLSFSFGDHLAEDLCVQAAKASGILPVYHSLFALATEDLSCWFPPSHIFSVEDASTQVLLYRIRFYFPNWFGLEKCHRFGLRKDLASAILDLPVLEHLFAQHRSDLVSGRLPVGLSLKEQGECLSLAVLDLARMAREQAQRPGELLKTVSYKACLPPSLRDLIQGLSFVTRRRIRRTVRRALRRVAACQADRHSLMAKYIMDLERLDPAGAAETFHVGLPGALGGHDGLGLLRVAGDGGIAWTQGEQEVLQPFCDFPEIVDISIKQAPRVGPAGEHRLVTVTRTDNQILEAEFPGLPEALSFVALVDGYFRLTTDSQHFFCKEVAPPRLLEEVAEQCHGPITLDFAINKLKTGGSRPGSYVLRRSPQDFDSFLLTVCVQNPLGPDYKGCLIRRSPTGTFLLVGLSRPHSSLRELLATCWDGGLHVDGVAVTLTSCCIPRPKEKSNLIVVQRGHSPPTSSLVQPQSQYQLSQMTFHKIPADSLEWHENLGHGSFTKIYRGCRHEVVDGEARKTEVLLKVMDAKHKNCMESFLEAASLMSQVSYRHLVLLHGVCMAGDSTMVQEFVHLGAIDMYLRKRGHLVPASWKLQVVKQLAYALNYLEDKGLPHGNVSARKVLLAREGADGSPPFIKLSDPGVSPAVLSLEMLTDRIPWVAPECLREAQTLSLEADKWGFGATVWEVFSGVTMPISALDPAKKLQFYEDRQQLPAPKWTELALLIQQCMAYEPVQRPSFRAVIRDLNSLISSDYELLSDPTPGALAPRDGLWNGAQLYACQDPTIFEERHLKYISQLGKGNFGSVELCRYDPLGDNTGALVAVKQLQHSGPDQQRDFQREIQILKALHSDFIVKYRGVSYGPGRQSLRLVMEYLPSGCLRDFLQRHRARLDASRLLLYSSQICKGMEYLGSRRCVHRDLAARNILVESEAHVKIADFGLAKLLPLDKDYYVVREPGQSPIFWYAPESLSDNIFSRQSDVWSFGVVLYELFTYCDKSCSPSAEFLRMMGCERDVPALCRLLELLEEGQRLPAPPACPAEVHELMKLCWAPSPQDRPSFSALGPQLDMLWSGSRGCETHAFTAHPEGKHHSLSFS
Nature of the experiment: Inhibition of human JAK3 (781 to end residues) assessed as residual activity at 100 nM using GGEEEEYFELVKK as substrate after 40 mins in presence of [gamma33P]-ATP by scintillation counting based radiometric assay relative to control.

Experiment [2] concerns the target Tyrosine-protein kinase JAK2 (Homo sapiens, UniProt O60674). Nature of the experiment: Inhibition of human JAK2 (808 to end residues) assessed as residual activity at 100 nM using KTFCGTPEYLAP as substrate after 40 mins in presence of [gamma33P]-ATP by scintillation counting based radiometric assay relative to control.
Experiment [3] deals with Receptor-type tyrosine-protein kinase FLT3 (Homo sapiens) (UniProt P36888). The experiment is described as follows: Inhibition of human FLT3 (564 to end residues) assessed as residual activity at 100 nM using EAIYAAPFAKKK as substrate after 40 mins in presence of [gamma33P]-ATP by scintillation counting based radiometric assay relative to control.
Receptor-type tyrosine-protein kinase FLT3 (Homo sapiens), sequence (P36888 whole entry): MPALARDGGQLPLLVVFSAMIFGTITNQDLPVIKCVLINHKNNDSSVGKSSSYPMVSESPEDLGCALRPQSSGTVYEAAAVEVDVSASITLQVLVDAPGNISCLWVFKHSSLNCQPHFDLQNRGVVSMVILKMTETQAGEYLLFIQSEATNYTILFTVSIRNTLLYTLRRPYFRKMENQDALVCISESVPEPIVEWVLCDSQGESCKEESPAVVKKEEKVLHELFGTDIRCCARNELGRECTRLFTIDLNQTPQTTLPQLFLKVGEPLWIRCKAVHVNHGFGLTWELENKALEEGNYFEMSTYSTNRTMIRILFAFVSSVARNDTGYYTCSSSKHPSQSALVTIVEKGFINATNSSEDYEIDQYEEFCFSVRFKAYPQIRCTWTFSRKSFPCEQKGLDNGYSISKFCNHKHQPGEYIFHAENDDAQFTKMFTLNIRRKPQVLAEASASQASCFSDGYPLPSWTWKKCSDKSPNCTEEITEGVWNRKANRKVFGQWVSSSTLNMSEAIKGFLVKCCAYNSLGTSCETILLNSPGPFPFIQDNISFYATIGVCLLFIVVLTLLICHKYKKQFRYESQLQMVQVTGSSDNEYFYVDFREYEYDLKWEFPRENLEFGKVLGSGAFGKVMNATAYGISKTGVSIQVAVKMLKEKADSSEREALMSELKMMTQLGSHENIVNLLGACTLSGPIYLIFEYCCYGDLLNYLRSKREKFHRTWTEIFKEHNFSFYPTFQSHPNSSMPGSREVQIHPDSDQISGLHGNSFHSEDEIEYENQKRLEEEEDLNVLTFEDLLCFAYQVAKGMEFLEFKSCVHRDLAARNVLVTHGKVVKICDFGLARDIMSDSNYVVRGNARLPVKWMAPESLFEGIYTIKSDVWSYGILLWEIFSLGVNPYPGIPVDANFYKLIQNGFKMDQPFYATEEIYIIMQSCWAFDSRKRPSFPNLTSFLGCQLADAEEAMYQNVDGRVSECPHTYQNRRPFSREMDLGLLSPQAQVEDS
A further experiment concerns MOLM-13. Nature of the experiment: Antiproliferative activity against FLT3-ITD-positive human MOLM13 cells assessed as reduction in cell growth after 72 hrs by MTT assay. The experiment is classed as functional, cell-based. The conditions noted are these: MOLM-13, 72 h.
The test system of the next experiment is MV4-11. Nature of the experiment: Antiproliferative activity against FLT3-ITD-positive human MV4-11 cells assessed as reduction in cell growth after 72 hrs by MTT assay. The experiment is classed as functional, cell-based. The conditions noted are these: MV4-11, 72 h. In general terms: Formazan colour is commonly taken as a measure of viable cells.
The target of experiment [4] is Tyrosine-protein kinase JAK1 (Homo sapiens, UniProt P23458). Nature of the experiment: Inhibition of human JAK1 (866 to end residues) assessed as residual activity at 100 nM using GEEPLYWSFPAKK as substrate after 40 mins in presence of [gamma33P]-ATP by scintillation counting based radiometric assay relative to control.
Tyrosine-protein kinase JAK1, sequence (P23458 whole entry): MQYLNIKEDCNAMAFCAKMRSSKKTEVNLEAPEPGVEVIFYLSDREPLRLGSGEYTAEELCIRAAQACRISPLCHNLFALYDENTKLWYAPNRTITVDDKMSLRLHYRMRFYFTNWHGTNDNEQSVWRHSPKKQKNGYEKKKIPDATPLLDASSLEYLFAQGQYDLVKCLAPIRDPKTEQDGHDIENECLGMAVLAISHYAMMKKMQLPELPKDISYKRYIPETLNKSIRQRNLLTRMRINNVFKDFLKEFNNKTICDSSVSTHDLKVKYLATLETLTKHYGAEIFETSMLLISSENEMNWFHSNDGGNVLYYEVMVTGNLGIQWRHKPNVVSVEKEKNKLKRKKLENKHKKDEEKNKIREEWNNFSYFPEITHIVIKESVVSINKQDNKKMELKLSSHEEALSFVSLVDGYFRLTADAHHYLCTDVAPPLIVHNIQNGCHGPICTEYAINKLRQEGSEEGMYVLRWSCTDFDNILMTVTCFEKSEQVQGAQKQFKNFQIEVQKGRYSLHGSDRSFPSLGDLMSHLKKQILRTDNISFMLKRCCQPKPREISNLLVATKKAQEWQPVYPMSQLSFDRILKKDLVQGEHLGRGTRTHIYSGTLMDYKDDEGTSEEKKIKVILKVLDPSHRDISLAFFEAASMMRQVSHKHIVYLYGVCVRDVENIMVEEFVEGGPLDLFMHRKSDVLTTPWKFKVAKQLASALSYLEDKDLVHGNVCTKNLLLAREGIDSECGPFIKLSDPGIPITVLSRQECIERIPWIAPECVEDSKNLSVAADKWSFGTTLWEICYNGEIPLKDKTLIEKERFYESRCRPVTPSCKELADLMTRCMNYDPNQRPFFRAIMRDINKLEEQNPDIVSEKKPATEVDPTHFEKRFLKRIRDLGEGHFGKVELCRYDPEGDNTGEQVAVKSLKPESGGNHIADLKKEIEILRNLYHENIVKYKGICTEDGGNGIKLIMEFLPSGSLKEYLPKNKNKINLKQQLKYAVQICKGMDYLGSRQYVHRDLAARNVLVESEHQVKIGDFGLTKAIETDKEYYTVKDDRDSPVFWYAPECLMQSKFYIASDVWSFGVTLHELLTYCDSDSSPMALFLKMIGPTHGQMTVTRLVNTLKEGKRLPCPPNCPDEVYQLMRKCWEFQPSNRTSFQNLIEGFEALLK

Tyrosine-protein kinase JAK2, sequence (O60674 whole entry): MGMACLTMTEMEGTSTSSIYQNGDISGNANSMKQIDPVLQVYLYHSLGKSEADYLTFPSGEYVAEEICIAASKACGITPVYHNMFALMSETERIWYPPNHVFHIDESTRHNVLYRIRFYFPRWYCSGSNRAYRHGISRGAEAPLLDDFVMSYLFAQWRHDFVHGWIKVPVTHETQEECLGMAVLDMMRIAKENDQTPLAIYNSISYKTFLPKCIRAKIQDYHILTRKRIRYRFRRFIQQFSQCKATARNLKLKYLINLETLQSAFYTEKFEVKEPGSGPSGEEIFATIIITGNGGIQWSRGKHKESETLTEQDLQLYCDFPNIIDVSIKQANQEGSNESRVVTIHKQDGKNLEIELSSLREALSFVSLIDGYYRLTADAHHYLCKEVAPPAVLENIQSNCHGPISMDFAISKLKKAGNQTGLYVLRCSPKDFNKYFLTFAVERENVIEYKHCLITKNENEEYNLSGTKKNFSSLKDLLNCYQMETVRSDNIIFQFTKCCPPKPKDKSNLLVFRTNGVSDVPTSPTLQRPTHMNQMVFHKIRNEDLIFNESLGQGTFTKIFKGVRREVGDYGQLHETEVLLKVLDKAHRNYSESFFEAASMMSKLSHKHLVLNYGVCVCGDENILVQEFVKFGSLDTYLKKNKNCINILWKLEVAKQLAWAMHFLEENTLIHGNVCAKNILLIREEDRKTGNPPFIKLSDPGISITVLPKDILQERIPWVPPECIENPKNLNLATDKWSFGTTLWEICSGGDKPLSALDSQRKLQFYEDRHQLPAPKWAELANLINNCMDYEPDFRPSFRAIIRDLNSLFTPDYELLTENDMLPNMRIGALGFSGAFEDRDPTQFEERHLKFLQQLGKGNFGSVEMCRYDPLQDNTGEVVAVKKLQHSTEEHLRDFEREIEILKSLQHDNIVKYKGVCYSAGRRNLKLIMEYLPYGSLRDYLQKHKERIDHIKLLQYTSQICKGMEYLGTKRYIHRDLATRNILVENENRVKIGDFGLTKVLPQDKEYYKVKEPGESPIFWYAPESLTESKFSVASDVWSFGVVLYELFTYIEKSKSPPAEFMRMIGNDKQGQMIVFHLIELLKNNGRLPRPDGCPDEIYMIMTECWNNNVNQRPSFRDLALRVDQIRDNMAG

Regarding `CCOCCN(C)C1CCN(c2ccc(Nc3ncc(C)c(-c4cnn(C(C)C)c4)n3)cc2F)CC1`, the Activity was 28% in experiment [1], 9% in experiment [2], 5% in experiment [3] and 19% in experiment [4]. For the same compound, the IC50 in the experiment with MOLM-13 was determined as 28 nM; in the experiment on MV4-11 it was 7.3 nM.

For `CCN1CCN(c2ccc(Nc3ncc(F)c(-c4cnn(C5CCCC5)c4)n3)cc2F)CC1`, the Activity in experiment [1] came to 68%; in experiment [2] it was 27%; in experiment [3], 12%; in experiment [4] it was 57%. In addition, the IC50 amounted to 410 nM with MOLM-13 and 27 nM with MV4-11.

Consider `Cc1cnc(Nc2ccc(N3CCC(N(C)CCN4CCOCC4)CC3)c(F)c2)nc1-c1cnn(C(C)C)c1`, for which the Activity was found to be 37% in experiment [1], 23% in experiment [2], 5% in experiment [3] and 20% in experiment [4]. Besides, the values for the IC50 in the experiment with MOLM-13 and in the experiment with MV4-11 were 89 nM and 18 nM, respectively.

For `CCCn1cc(-c2nc(Nc3ccc(N4CCN(CC)CC4)c(F)c3)ncc2F)cn1`, the Activity worked out at 52% in experiment [1], 27% in experiment [2], 15% in experiment [3] and 59% in experiment [4]. Moreover, the IC50 in the experiment on MOLM-13 was found to be 410 nM; in the experiment with MV4-11, 61 nM.

`CCN1CCN(c2ccc(Nc3ncc(C)c(-c4cnn(C(C)C)c4)n3)cc2F)CC1`: the IC50 came out at 4000 nM in the experiment with MOLM-13 and 1100 nM in the experiment on MV4-11.

Consider `CCN1CCN(c2ccc(Nc3ncc(F)c(-c4cnn(C(C)C)c4)n3)cc2F)CC1`, for which the Activity was 66% in experiment [1], 17% in experiment [2], 17% in experiment [3] and 62% in experiment [4]. Further, the IC50 in the experiment with MOLM-13 was found to be 250 nM; in the experiment with MV4-11, 31 nM.

For `CN(C)C1CCN(c2ccc(Nc3ncc(F)c(-c4cnn(C5CCCC5)c4)n3)cc2F)CC1`, the IC50 in the experiment with MV4-11 came to 4500 nM.

Regarding `CCCn1cc(-c2nc(Nc3ccc(N4CCN(C)CC4)c(F)c3)ncc2F)cn1`, the Activity was determined as 69% in experiment [1], 19% in experiment [2], 14% in experiment [3] and 48% in experiment [4]. In addition, the results for the IC50 in the experiment with MOLM-13 and in the experiment with MV4-11 were 490 nM and 57 nM, respectively.

As to `Cc1cnc(Nc2ccc(N3CCC(N(C)CC4CC4)CC3)c(F)c2)nc1-c1cnn(C(C)C)c1`, the Activity in experiment [1] stood at 31%; in experiment [2], 15%; in experiment [3], 4%; in experiment [4], 20%. In addition, the results for the half-maximal inhibitory concentration (IC50) with MOLM-13 and with MV4-11 were 31 nM and 8.1 nM, respectively.

Turning to `CCCn1cc(-c2nc(Nc3ccc(N4CCN(CC)CC4)cc3F)ncc2F)cn1`, the concentration for half-maximal inhibition (IC50) was more than 10000 nM in the experiment with MOLM-13 and 4200 nM with MV4-11.

Turning to `Cc1cnc(Nc2ccc(N3CCC(NCCO)CC3)c(F)c2)nc1-c1cnn(C(C)C)c1`, the concentration for half-maximal inhibition (IC50) with MOLM-13 was determined as 550 nM; in the experiment on MV4-11, 200 nM.

Regarding `CC(C)n1cc(-c2nc(Nc3ccc(N4CCN(C)CC4)cc3F)ncc2F)cn1`, the IC50 with MV4-11 worked out at 7800 nM.

Turning to `CN1CCN(c2ccc(Nc3ncc(F)c(-c4cnn(C5CCCC5)c4)n3)cc2F)CC1`, in the experiment with MV4-11, the IC50 was found to be 8300 nM.

Turning to `Cc1cnc(Nc2ccc(N3CCC(N(C)C)CC3)c(F)c2)nc1-c1cnn(C(C)C)c1`, the Activity was 23% in experiment [1], 5% in experiment [2], 8% in experiment [3] and 17% in experiment [4]. Besides, the values for the IC50 with MOLM-13 and in the experiment with MV4-11 were 100 nM and 5.4 nM, respectively.

Turning to `Cc1cnc(Nc2ccc(N3CCC(CO)CC3)c(F)c2)nc1-c1cnn(C(C)C)c1`, the figures for the IC50 in the experiment with MOLM-13 and with MV4-11 were 840 nM and 160 nM, respectively.

Turning to `CCCN(C)C1CCN(c2ccc(Nc3ncc(C)c(-c4cnn(C(C)C)c4)n3)cc2F)CC1`, the Activity was 9% in experiment [1], 3% in experiment [2], 6% in experiment [3] and 24% in experiment [4]. Moreover, the results for the IC50 with MOLM-13 and in the experiment with MV4-11 were 47 nM and 7.3 nM, respectively.

For the compound `CCCn1cc(-c2nc(Nc3ccc(N4CCN(C)CC4)cc3F)ncc2F)cn1`, the 50% inhibitory concentration (IC50) in the experiment on MOLM-13 was 9700 nM; with MV4-11, 8100 nM.

For `CC(C)n1cc(-c2nc(Nc3ccc(N4CCN(C5CCN(C)CC5)CC4)c(F)c3)ncc2F)cn1`, the Activity in experiment [1] was found to be 44%; in experiment [2], 10%; in experiment [3] it was 10%; in experiment [4] it was 54%. Further, the IC50 was determined as 590 nM in the experiment with MOLM-13 and 36 nM in the experiment with MV4-11.

For the compound `CCCN1CCC(n2cc(-c3nc(Nc4ccc(N5CCN(C)CC5)c(F)c4)ncc3F)cn2)CC1`, the concentration for half-maximal inhibition (IC50) turned out to be 190 nM with MOLM-13 and 110 nM with MV4-11.

As to `CCN1CCN(c2ccc(Nc3ncc(F)c(-c4cnn(C(C)C)c4)n3)c(F)c2)CC1`, the Activity in experiment [1] came to 77%; in experiment [2], 39%; in experiment [3], 16%; in experiment [4] it was 113%. For the same compound, the IC50 was found to be 850 nM in the experiment with MOLM-13 and 57 nM with MV4-11.

In the case of `Cc1cnc(Nc2ccc(N3CCN(C)CC3)c(F)c2)nc1-c1cnn(C(C)C)c1`, the Activity stood at 40% in experiment [1], 3% in experiment [2], 6% in experiment [3] and 35% in experiment [4]. Moreover, the IC50 with MOLM-13 amounted to 120 nM; with MV4-11, 42 nM.

Take `CCCCCCN(C)C1CCN(c2ccc(Nc3ncc(C)c(-c4cnn(C(C)C)c4)n3)cc2F)CC1`: the Activity is 44% in experiment [1], 18% in experiment [2], 6% in experiment [3] and 26% in experiment [4]. Besides, the IC50 in the experiment with MOLM-13 was determined as 210 nM; in the experiment on MV4-11, 70 nM.

On to `Cc1cnc(Nc2ccc(N3CCC(N(C)CCN4CCCCC4)CC3)c(F)c2)nc1-c1cnn(C(C)C)c1`, for which the Activity in experiment [1] came to 38%; in experiment [2] it was 4%; in experiment [3], 6%; in experiment [4] it was 21%. In addition, the IC50 in the experiment with MOLM-13 was 170 nM; with MV4-11 it was 12 nM.

As for `Cc1cnc(Nc2ccc(N3CCC(N(C)CC4CCCO4)CC3)c(F)c2)nc1-c1cnn(C(C)C)c1` (configuration not stated), the Activity in experiment [1] was determined as 36%; in experiment [2], 10%; in experiment [3], 6%; in experiment [4], 23%. The results for the concentration for half-maximal inhibition (IC50) with MOLM-13 and in the experiment with MV4-11 were 70 nM and 30 nM, respectively.

With `CC(C)n1cc(-c2nc(Nc3ccc(N4CCN(C)CC4)c(F)c3)ncc2F)cn1`, the IC50 was determined as 940 nM in the experiment on MOLM-13 and 26 nM in the experiment with MV4-11.

For the compound `CC(C)n1cc(-c2nc(Nc3ccc(N4CCC(N(C)C)CC4)c(F)c3)ncc2F)cn1`, the Activity in experiment [1] was determined as 48%; in experiment [2] it was 6%; in experiment [3], 9%; in experiment [4], 57%. Besides, the IC50 stood at 540 nM in the experiment with MOLM-13 and 32 nM in the experiment on MV4-11.

With `Cc1cnc(Nc2ccc(N3CCC(N(C)CCCCCO)CC3)c(F)c2)nc1-c1cnn(C(C)C)c1`, the IC50 was more than 10000 nM in the experiment with MOLM-13 and more than 1000 nM in the experiment on MV4-11.

In the case of `CCCN(CCN1CCOCC1)C1CCN(c2ccc(Nc3ncc(C)c(-c4cnn(C(C)C)c4)n3)cc2F)CC1`, the Activity in experiment [1] worked out at 9%; in experiment [2] it was 8%; in experiment [3], 8%; in experiment [4], 20%. Moreover, the IC50 in the experiment with MOLM-13 and in the experiment on MV4-11 was 210 nM throughout.

Regarding `CC(C)n1cc(-c2nc(Nc3ccc(N4CCC(N5CCCCC5)CC4)c(F)c3)ncc2F)cn1`, the Activity in experiment [1] came to 47%; in experiment [2] it was 8%; in experiment [3] it was 10%; in experiment [4], 36%. Moreover, the values for the IC50 in the experiment on MOLM-13 and in the experiment on MV4-11 were 100 nM and 26 nM, respectively.
